According to ChEMBL document CHEMBL4808250, “Synthesis and biological evaluation of substituted amide derivatives of C4-ageratochromene dimer analog” (Bioorg Med Chem Lett, 2021):
Calls of active or inactive are those of the source. No cut-off for these calls is given here.

Columns and labels:
PA-1 = experiment: Antiproliferative activity against human PA-1 cells assessed as reduction in cell growth at 50 ug/ml measured by MTT assay; assay type: functional; conditions: read-out: GI
MDA-MB-231 = experiment: Antiproliferative activity against ER-negative human MDA-MB-231 cells assessed as reduction in cell growth at 50 ug/ml measured by MTT assay; assay type: functional; conditions: read-out: GI
MCF7 = experiment: Antiproliferative activity against ER-positive human MCF7 cells assessed as reduction in cell growth at 50 ug/ml measured by MTT assay; assay type: functional; conditions: read-out: GI
Calvarial osteoblast [1] = experiment: Induction of osteoblast differentiation in mouse calvarial osteoblasts assessed as increase in ALP activity at 1 pM incubated for 48 hrs by spectrophotometric analysis; assay type: functional, cell-based
Calvarial osteoblast [2] = experiment: Induction of osteoblast differentiation in mouse calvarial osteoblasts assessed as increase in ALP activity at 100 pM incubated for 48 hrs by spectrophotometric analysis; assay type: functional, cell-based
Calvarial osteoblast [3] = experiment: Induction of osteogenic differentiation in mouse calvarial osteoblasts assessed as increase in BMP2 mRNA expression level at 1 to 100 pM after 24 to 48 hrs by RT-qPCR analysis; assay type: functional, cell-based; conditions: dose 1-100 pM, time 24-48 hrs
Calvarial osteoblast [4] = experiment: Induction of osteoblast differentiation in mouse calvarial osteoblasts assessed as increase in bone mineralization at 1 pM incubated for 21 days by alizarin-red S dye based colorimetric analysis; assay type: functional, cell-based; conditions: time 21.0 day
Calvarial osteoblast [5] = experiment: Cytotoxicity against mouse calvarial osteoblasts assessed as reduction in cell viability at 0.000001 to 1 uM measured after 48 hrs by MTT assay; assay type: cell-based; conditions: dose lower 1e-06 µM, dose upper 1 µM
Calvarial osteoblast [6] = experiment: Induction of osteogenic differentiation in mouse calvarial osteoblasts assessed as increase in Type-1 collagen mRNA expression level at 1 to 100 pM after 24 to 48 hrs by RT-qPCR analysis; assay type: functional, cell-based; conditions: dose 1-100 pM, time 24-48 hrs
Calvarial osteoblast [7] = experiment: Induction of osteogenic differentiation in mouse calvarial osteoblasts assessed as increase in RUNX2 mRNA expression level at 1 to 100 pM after 24 to 48 hrs by RT-qPCR analysis; assay type: functional, cell-based; conditions: dose 1-100 pM, time 24-48 hrs

## COc1ccc2c(c1)OC(C)(C)C/C2=C1/CC(C)(C)Oc2cc(O)ccc21
PA-1
  inhibition of growth at 50 µg/mL: 26.6%
MDA-MB-231
  inhibition of growth at 50 µg/mL: 36.5%
MCF7
  inhibition of growth at 50 µg/mL: 25.2%

## COc1ccc2c(c1)OC(C)(C)C/C2=C1/CC(C)(C)Oc2cc(OCCCC(=O)N3CCCC3)ccc21
PA-1
  inhibition of growth at 50 µg/mL: 26.6%
Calvarial osteoblast [1]
  Activity: Active
MDA-MB-231
  inhibition of growth at 50 µg/mL: 36.5%
MCF7
  inhibition of growth at 50 µg/mL: 25.2%

## CNCCCCNC(=O)CCCOc1ccc2c(c1)OC(C)(C)C/C2=C1/CC(C)(C)Oc2cc(OC)ccc21
MDA-MB-231
  inhibition of growth at 50 µg/mL: 36.5%

## COc1ccc2c(c1)OC(C)(C)C/C2=C1/CC(C)(C)Oc2cc(OCCCC(=O)N3CCN(C)CC3)ccc21
Calvarial osteoblast [2]
  Activity: Active
MCF7
  inhibition of growth at 50 µg/mL: 25.2%

## COc1ccc2c(c1)OC(C)(C)C/C2=C1/CC(C)(C)Oc2cc(OCCCCC(=O)N3CCCCC3)ccc21
PA-1
  inhibition of growth at 50 µg/mL: 26.6%
MDA-MB-231
  inhibition of growth at 50 µg/mL: 36.5%
MCF7
  inhibition of growth at 50 µg/mL: 25.2%

## COc1ccc2c(c1)OC(C)(C)C/C2=C1/CC(C)(C)Oc2cc(OCCCCCC(=O)N3CCCCC3)ccc21
PA-1
  inhibition of growth at 50 µg/mL: 26.6%
MDA-MB-231
  inhibition of growth at 50 µg/mL: 36.5%

## COc1ccc2c(c1)OC(C)(C)C/C2=C1/CC(C)(C)Oc2cc(OCCCCC(=O)N3CCCC3)ccc21
PA-1
  inhibition of growth at 50 µg/mL: 26.6%
MDA-MB-231
  inhibition of growth at 50 µg/mL: 36.5%
MCF7
  inhibition of growth at 50 µg/mL: 25.2%

## COc1ccc2c(c1)OC(C)(C)C/C2=C1/CC(C)(C)Oc2cc(OCCCC(=O)N3CCCCC3)ccc21
Calvarial osteoblast [3]
  Activity: Active
PA-1
  inhibition of growth at 50 µg/mL: 68.3%
Calvarial osteoblast [1]
  Activity: Active
Calvarial osteoblast [4]
  Activity: Active
Calvarial osteoblast [5]
  Activity: Non-Toxic
Calvarial osteoblast [6]
  Activity: Active
MDA-MB-231
  inhibition of growth at 50 µg/mL: 15.9%
Calvarial osteoblast [7]
  Activity: Active
MCF7
  inhibition of growth at 50 µg/mL: 26.1%

## COc1ccc2c(c1)OC(C)(C)C/C2=C1/CC(C)(C)Oc2cc(OCCCCCC(=O)NCc3ccccn3)ccc21
MDA-MB-231
  inhibition of growth at 50 µg/mL: 36.5%

## CNCCCCNC(=O)CCCCOc1ccc2c(c1)OC(C)(C)C/C2=C1/CC(C)(C)Oc2cc(OC)ccc21
Calvarial osteoblast [1]
  Activity: Active
MDA-MB-231
  inhibition of growth at 50 µg/mL: 36.5%
MCF7
  inhibition of growth at 50 µg/mL: 25.2%

## CNCCCCNC(=O)CCCCCOc1ccc2c(c1)OC(C)(C)C/C2=C1/CC(C)(C)Oc2cc(OC)ccc21
PA-1
  inhibition of growth at 50 µg/mL: 26.6%
MDA-MB-231
  inhibition of growth at 50 µg/mL: 36.5%
MCF7
  inhibition of growth at 50 µg/mL: 25.2%

## COc1ccc2c(c1)OC(C)(C)C/C2=C1/CC(C)(C)Oc2cc(OCCCCCC(=O)N3CCN(C)CC3)ccc21
PA-1
  inhibition of growth at 50 µg/mL: 26.6%
MCF7
  inhibition of growth at 50 µg/mL: 25.2%

## COc1ccc2c(c1)OC(C)(C)C/C2=C1/CC(C)(C)Oc2cc(OCCCCC(=O)N3CCN(C)CC3)ccc21
PA-1
  inhibition of growth at 50 µg/mL: 26.6%
MDA-MB-231
  inhibition of growth at 50 µg/mL: 36.5%
MCF7
  inhibition of growth at 50 µg/mL: 25.2%

## COc1ccc2c(c1)OC(C)(C)C/C2=C1/CC(C)(C)Oc2cc(OCCCCCC(=O)NCCCCCCNC(=O)OC(C)(C)C)ccc21
PA-1
  inhibition of growth at 50 µg/mL: 26.6%
Calvarial osteoblast [2]
  Activity: Active
MDA-MB-231
  inhibition of growth at 50 µg/mL: 36.5%
MCF7
  inhibition of growth at 50 µg/mL: 25.2%

## COc1ccc2c(c1)OC(C)(C)C/C2=C1/CC(C)(C)Oc2cc(OCCCC(=O)NCCCCCCNC(=O)OC(C)(C)C)ccc21
PA-1
  inhibition of growth at 50 µg/mL: 26.6%
Calvarial osteoblast [1]
  Activity: Active
MDA-MB-231
  inhibition of growth at 50 µg/mL: 36.5%

## COc1ccc2c(c1)OC(C)(C)C/C2=C1/CC(C)(C)Oc2cc(OCCCC(=O)NCc3ccccn3)ccc21
PA-1
  inhibition of growth at 50 µg/mL: 26.6%

## COc1ccc2c(c1)OC(C)(C)C/C2=C1/CC(C)(C)Oc2cc(OCCCCCC(=O)N3CCCC3)ccc21
MCF7
  inhibition of growth at 50 µg/mL: 25.2%

## COc1ccc2c(c1)OC(C)(C)C/C2=C1/CC(C)(C)Oc2cc(OC)ccc21
PA-1
  inhibition of growth at 50 µg/mL: 26.6%
MDA-MB-231
  inhibition of growth at 50 µg/mL: 36.5%
MCF7
  inhibition of growth at 50 µg/mL: 25.2%

## COc1ccc2c(c1)OC(C)(C)C/C2=C1/CC(C)(C)Oc2cc(OCCCCC(=O)NCc3ccccn3)ccc21
PA-1
  inhibition of growth at 50 µg/mL: 26.6%
MDA-MB-231
  inhibition of growth at 50 µg/mL: 36.5%
MCF7
  inhibition of growth at 50 µg/mL: 25.2%
